Assay results published in paper PMC10838953.
Where “and” joins values, the source holds several entries; their conditions need not be identical. Identical values can stand only once.

Key:
[1] = system: AKT (S129) in 786-O cells
[2] = system: tumor slices of clear cell renal carcinoma (786-O-luc xenograft); details: 10 μM CX-4945, 5 μM AB668
AKT (S129) = details: 786-O cells; 48 h
caspase-3 in 786-O cells = details: 72 h, compounds at 20 μM
HEK293 cell line = details: nontumor HEK293 cell line; cited from earlier work
HeLa cells = details: cited from earlier work

O=C(O)c1ccc2c(c1)nc(Nc1cccc(Cl)c1)c1ccncc12 [CX-4945, silmitasertib]
pAKTS129 / AKT band quantification [1]: 0.3 and 0.4 | cell viability of tumor slices [2]: had no effect | NES: Cell recruitment (pro-inflammatory response) (786-O cells): 1.563 | NES: Constitutive Signaling by NOTCH1 HD+PEST Domain Mutants (786-O cells): -1.497 | NES: Constitutive Signaling by NOTCH1 PEST Domain Mutants (786-O cells): -1.497 | NES: Export of Viral Ribonucleoproteins from Nucleus (786-O cells): 1.432 | NES: G alpha (12/13) signalling events (786-O cells): -1.412 | NES: HCMV Late Events (786-O cells): 1.511 | NES: Infection with Mycobacterium tuberculosis (786-O cells): 1.475 | NES: Interferon alpha/beta signaling (786-O cells): -1.554 | NES: Purinergic signaling in leishmaniasis infection (786-O cells): 1.563 | NES: Response of Mtb to phagocytosis (786-O cells): 1.605 | NES: Rev-mediated nuclear export of HIV RNA (786-O cells): 1.427 | NES: Signaling by NOTCH1 HD+PEST Domain Mutants in Cancer (786-O cells): -1.497 | NES: Signaling by NOTCH1 PEST Domain Mutants in Cancer (786-O cells): -1.497 | NES: Signaling by NOTCH1 in Cancer (786-O cells): -1.497 | NES: Uptake and actions of bacterial toxins (786-O cells): 1.428 | enrichmentScore: Cell recruitment (pro-inflammatory response) (786-O cells): 0.6607 | enrichmentScore: Constitutive Signaling by NOTCH1 HD+PEST Domain Mutants (786-O cells): -0.4974 | enrichmentScore: Constitutive Signaling by NOTCH1 PEST Domain Mutants (786-O cells): -0.4974 | enrichmentScore: Export of Viral Ribonucleoproteins from Nucleus (786-O cells): 0.45 | enrichmentScore: G alpha (12/13) signalling events (786-O cells): -0.5156 | enrichmentScore: HCMV Late Events (786-O cells): 0.4357 | enrichmentScore: Infection with Mycobacterium tuberculosis (786-O cells): 0.5692 | enrichmentScore: Purinergic signaling in leishmaniasis infection (786-O cells): 0.6607 | enrichmentScore: Response of Mtb to phagocytosis (786-O cells): 0.6338 | enrichmentScore: Rev-mediated nuclear export of HIV RNA (786-O cells): 0.4457 | enrichmentScore: Signaling by NOTCH1 HD+PEST Domain Mutants in Cancer (786-O cells): -0.4974 | enrichmentScore: Signaling by NOTCH1 PEST Domain Mutants in Cancer (786-O cells): -0.4974 | enrichmentScore: Signaling by NOTCH1 in Cancer (786-O cells): -0.4974 | enrichmentScore: Uptake and actions of bacterial toxins (786-O cells): 0.5866 | NES: SARS-CoV-1 activates/modulates innate immune responses (786-O cells; R-HSA-9692916, CX4945 vs DMSO): 1.374 | enrichmentScore: SARS-CoV-1 activates/modulates innate immune responses (786-O cells; R-HSA-9692916, CX4945 vs DMSO): 0.4726 | NES: SARS-CoV-1 modulates host translation machinery (786-O cells; R-HSA-9735869, CX4945 vs DMSO): -1.391 | enrichmentScore: SARS-CoV-1 modulates host translation machinery (786-O cells; R-HSA-9735869, CX4945 vs DMSO): -0.4335 | phosphorylation of S129AKT (AKT (S129)): decreased, in a dose-dependent manner | CK2 inhibition 8 h after inhibitor removal (CK2 in 786-O cells): CK2 activity was restored to its initial level | caspase-3 activation (caspase-3 in 786-O cells): induced caspase-3 activation

O=C(CCC(=O)NCCc1ccc(Cl)c(Cl)c1)NCCCCn1cnc2c(Br)c(Br)c(Br)c(Br)c21 [KN2]
cytotoxicity (HEK293 cell line): 16 µM | cytotoxicity (HeLa cells): 6 µM

CCC(=O)Nc1cc(Nc2cc(NC3CC3)n3ncc(C#N)c3n2)ccc1C [SGC-CK2-1]
pAKTS129 / AKT band quantification [1]: 0.4 | phosphorylation of S129AKT (AKT (S129)): decreased, in a dose-dependent manner | CK2 inhibition 8 h after inhibitor removal (CK2 in 786-O cells): persisted | caspase-3 activation (caspase-3 in 786-O cells): did not activate caspase-3

CN[C@@H]1C[C@H]2O[C@@](C)([C@@H]1OC)n1c3ccccc3c3c4c(c5c6ccccc6n2c5c31)C(=O)NC4 [staurosporine]
caspase-3 activation (caspase-3 in 786-O cells): induced caspase-3 activation
